# Source: a melting point compilation (Tetko et al.)
row,Compound,melting point
1,O=C(O)c1ccc(NS(=O)(=O)c2cc(Cl)sc2Cl)cc1,189 to 191 °C
2,NC(=S)Cc1cn2ccccc2n1,144 to 146 °C
3,CS(=O)(=O)c1ccc(C(=O)NN)cc1,189 to 191 °C
4,COc1ccc(N)cc1S(=O)(=O)N1CCOCC1,131 to 133 °C
5,N#CCOc1ccc(Cl)cc1CBr,85 to 87 °C
6,CC(C)(C)c1cccc2c1OCC2=O,69 to 71 °C
7,O=C(O)CC(O)(c1ccccc1)C(F)(F)F (stereo not given),133 to 135 °C
8,COC(=O)c1cc(N)cc([N+](=O)[O-])c1,159 to 161 °C
9,Cn1ncc2c1CCCC2=O,89 to 91 °C
10,COc1cc(C)c(C(C)=O)cc1OC,73 to 75 °C
11,NS(=O)(=O)c1cccc(I)c1,148 to 150 °C
12,COc1ccc(C(C)=O)cc1CN1CCOCC1,58 to 60 °C
13,NC(=O)c1cc(=NCC2CCCO2)cc[nH]1 (stereo not given),123 to 125 °C
14,Nc1ccnc(OC2CCCCC2)c1,114 to 116 °C
15,Cc1c(C(=O)O)oc2c(Cl)cccc12,229 to 231 °C
16,Fc1ccc(C(c2ccc(F)cc2)N2CCNCC2)cc1,89 to 92 °C
17,O=C1OCCN1c1ccc(O)cc1,177 to 179 °C
18,Nc1cc(-c2cccc(F)c2)no1,103 to 105 °C
19,CC(C)NS(=O)(=O)c1ccc(NN)nc1,141 to 143 °C
20,NC(=S)CC1CC1,68 to 70 °C
21,O=C(O)C1CCN(S(=O)(=O)c2ccccc2C(F)(F)F)CC1,127 to 129 °C
22,CC(=O)Nc1cc(NC(C)=O)cc(C(=O)O)c1,187 to 189 °C
23,COc1cc(S(=O)(=O)Cl)ccc1[N+](=O)[O-],75 to 77 °C
24,COCc1cc(O)ncn1,159 to 161 °C

row,Compound,melting point
1,COc1ccc(/C=C/c2cc(C(=O)O)c3cc(Br)ccc3n2)cc1,295 to 297 °C
2,CC(Cl)C(=O)Nc1ccc(F)c(F)c1F (stereo not given),136 to 139 °C
3,CC1=C(C(=O)Nc2ccccc2)C2(CCCCC2)C(C#N)=C(S)N1,238 to 240 °C
4,O=c1[nH]c(S)nc2c1cnn2-c1cccc(Cl)c1,255 to 257 °C
5,Cc1cc(C(=O)O)nn1-c1ccccc1,182 to 184 °C
6,O=C(O)c1ccc(C2SCCS2)cc1,166 to 168 °C
7,CC(C)(C)c1nnc(N)o1,226 to 228 °C
8,O=C(NCCc1ccc(F)cc1)C1Cc2ccccc2CN1 (stereo not given),102 to 104 °C
9,Cc1cc(F)c(S(=O)(=O)Cl)cc1[N+](=O)[O-],64 to 66 °C
10,CCC(C)c1ccc(-c2csc(N)n2)cc1 (stereo not given),77 to 79 °C
11,CC(C)(C)OC(=O)N1C2CCC1CC(O)C2 (stereo not given),140 to 142 °C
12,O=S(=O)(Cl)c1ccc2c(Cl)ccc(Cl)c2c1,127 to 129 °C
13,Nc1nnc(-c2cnn(-c3ccccc3)c2)o1,283 to 285 °C
14,O=C(O)c1ccc(F)cc1OC(F)F,115 to 117 °C
15,NC(=O)Nc1cccc(Br)c1,163 to 167 °C
16,O=C(CCl)Nc1ccc(N2CCCCC2)nc1,139 to 141 °C
17,O=C1CCCCC(N2C(=O)c3ccccc3C2=O)C1 (stereo not given),119 to 121 °C
18,NCC(O)c1ccc(Cl)cc1 (stereo not given),97 to 99 °C
19,O=C(Nc1cnccn1)C1CCCNC1 (stereo not given),141 to 143 °C
20,O=[N+]([O-])c1cc(O)cc(F)c1,111 to 113 °C
21,NNC(=O)c1c(Cl)cccc1Cl,180 to 182 °C
22,CC(C)c1ccc(-n2ccnc2S)cc1,131 to 135 °C
23,Cc1nnc(-c2ccc(C(=O)O)cc2)n1C,269 to 271 °C
24,O=C(O)c1csc(-c2ccc([N+](=O)[O-])cc2)n1,198 to 200 °C

row,Compound,melting point
1,N#Cc1cc(F)c(S(=O)(=O)Cl)c(F)c1,92 to 94 °C
2,Cc1nn(C)c(C)c1CC(N)=O,175 to 177 °C
3,O=C(CCl)c1ccc(CC(=O)N2CCOCC2)s1,136 to 138 °C
4,COc1cc(C=O)ccc1OCC(=O)O,184 to 186 °C
5,O=C(O)C1CCCN1S(=O)(=O)c1ccc(Br)cc1 (stereo not given),103 to 105 °C
6,O=C(O)C=Cc1nc2ccccc2s1,222 to 224 °C
7,COc1ccc(CN2C(=O)c3ccccc3C2=O)cc1C(=O)O,143 to 145 °C
8,O=C(O)c1cc(S(=O)(=O)N2CCSCC2)c[nH]1,238 to 240 °C
9,COc1ccc(NS(=O)(=O)c2ccc(C(C)=O)cc2)cc1,121 to 123 °C
10,O=C(O)c1ccccc1SCC(=O)N1CCc2ccccc21,152 to 154 °C
11,Cc1ccc(C)c(-c2cnnc(N)n2)c1,179 to 181 °C
12,COc1cc(CC#N)cc(Br)c1OCC(F)(F)F,116 to 118 °C
13,Brc1ccccc1Oc1ccncc1,68 to 70 °C
14,Cc1nc(COc2ccc(C=O)cc2)cs1,46 to 48 °C
15,O=[N+]([O-])c1ccc(-c2noc(C(F)F)n2)cc1,76 to 78 °C
16,O=C1NCCNc2ccccc21,151 to 153 °C
17,CN(C(=O)c1ccco1)c1ccccc1C(=O)O,189 to 191 °C
18,O=S(=O)(c1cccnc1)N1CCNCC1,88 to 90 °C
19,COCCc1ccc(OCCCC(=O)O)cc1,47 to 49 °C
20,Cc1nc[nH]n1,89 to 91 °C
21,CCOc1ccc(CCC(=O)O)cc1,102 to 104 °C
22,O=C(O)COc1ccc(Cl)c2ccccc12,162 to 164 °C
23,Cc1cc(C)c(N=C=S)c(Cl)c1,55 to 57 °C
24,CC(C)(C)Cc1nc(-c2cccc(C(=O)O)c2)no1,160 to 162 °C

row,Compound,melting point
1,CC1CCN(S(=O)(=O)c2ccc(C(=O)O)s2)CC1,207 to 209 °C
2,CC(C)Oc1ccc([N+](=O)[O-])cc1CBr,69 to 71 °C
3,NC(=O)c1c[nH]c(C2CC2)n1,216 to 218 °C
4,COc1ccc(CC2CC(=O)N2)cc1 (stereo not given),97 to 99 °C
5,Cc1nc(N)sc1Cc1ccc(F)cc1,94 to 96 °C
6,Cc1noc(-c2ccc(N)c(C)c2)n1,161 to 163 °C
7,NNc1c(F)cc(F)cc1Cl,87 to 89 °C
8,OC(c1c(F)cncc1Br)C1CCCCC1 (stereo not given),76 to 78 °C
9,Cc1nc(Cl)cc(-n2ccnc2)n1,114 to 116 °C
10,Cc1c(C(=O)O)sc2nc3n(c(=O)c12)CCCCC3,253 to 255 °C
11,O=S(=O)(Cl)c1ccc2c(c1)Cc1ccccc1-2,157 to 159 °C
12,Cc1ccc(CNC(=O)c2nnc(CCl)s2)cc1,153 to 155 °C
13,CC1(C)NCCNC1=O,113 to 115 °C
14,CC(C)CN1C(=O)c2ccccc2N2C(=O)CCC12C(=O)O (stereo not given),105 to 107 °C
15,COc1ccc(-c2nnc(Cl)c3ccccc23)cc1,148 to 150 °C
16,O=C1Nc2cc(SCc3ccccc3)ccc2C1=O,248 to 250 °C
17,O=C1C(Br)CCN1c1ccc(Cl)cc1 (stereo not given),83 to 85 °C
18,CN(CC(=O)Nc1ccccc1C(F)(F)F)C(=O)CCl,123 to 125 °C
19,C=CCNS(=O)(=O)c1ccc(C(=O)O)cc1,215 to 217 °C
20,CCC(O)(C(N)=O)c1ccc(Br)cc1 (stereo not given),146 to 148 °C
21,CC(N)c1ccccc1NS(=O)(=O)c1cccs1 (stereo not given),167 to 169 °C
22,CN(C(=O)OC(C)(C)C)c1ccc(O)cc1,133 to 135 °C
23,O=C(c1cccc([N+](=O)[O-])c1)C(F)(F)F,53 to 55 °C
24,Nc1ccc(F)c(NC(=O)Cc2ccccc2)c1,180 to 182 °C

row,Compound,melting point
1,COc1ccc(C2C(C(=O)O)CC(=O)N2C2CC2)cc1 (stereo not given),187 to 189 °C
2,O=C(O)c1cc([N+](=O)[O-])cn1Cc1sccc1Br,190 to 192 °C
3,CC(C(=O)O)c1ccccc1F (stereo not given),47 to 49 °C
4,O=C(O)c1cccc2[nH]c(=O)oc12,329 to 331 °C
5,CS(=O)(=O)CC(=O)c1ccccc1F,77 to 79 °C
6,O=C(O)C1CCCN1C(=O)c1ccc2ccccc2c1O (stereo not given),197 to 199 °C
7,CCc1nn2c(=O)cc(CCl)nc2s1,97 to 99 °C
8,Cc1n[nH]c(C)c1C(C)CC(=O)O (stereo not given),195 to 197 °C
9,CCCNc1c(N)n(Cc2ccccc2)c(=O)[nH]c1=O,210 to 212 °C
10,COC(C)C(N)=S (stereo not given),58 to 60 °C
11,Cc1cc(C(=O)O)nn1C1CCCCC1,145 to 147 °C
12,Cc1cccc(NC2CCNCC2)n1,85 to 87 °C
13,O=C(O)c1cc(S(=O)(=O)Nc2ccc(F)cc2)ccc1Cl,205 to 207 °C
14,COc1ccc2c(c1)NC(=O)C2=O,223 to 225 °C
15,CN1CCN(c2ccc(N)cc2Cl)CC1,127 to 129 °C
16,COc1ccccc1NC(=O)c1ccc(N)cc1,162 to 164 °C
17,O=Cc1c(Cl)nc2ccccn12,124 to 126 °C
18,Cc1c(C(=O)O)cc(Br)cc1S(N)(=O)=O,213 to 215 °C
19,CCOC(=O)c1[nH]c(C)c(C(=O)CCl)c1C,159 to 161 °C
20,Cn1cc(-c2csc(N)n2)cn1,230 to 232 °C
21,CCOC(=O)c1c(C)c2c(=O)[nH]nc(S)n2c1C,218 to 220 °C
22,O=C(O)C=Cc1cc(Br)ccc1OC(F)F,155 to 157 °C
23,Cc1ccc(C(=O)NN)o1,59 to 61 °C
24,N=C(N)Nc1nc2ccccc2[nH]1,242 to 244 °C

row,Compound,melting point
1,Cc1cc2ncn(C(C)C(N)=S)c2cc1C (stereo not given),204 to 206 °C
2,CCc1cc2c(CCl)cc(=O)oc2cc1O,216 to 218 °C
3,COc1cc(C(=O)O)ccc1OCc1ccc(Cl)cc1,221 to 223 °C
4,Cn1cc(-c2cccc(C(=O)O)c2)cn1,213 to 215 °C
5,COc1ccc(-c2cnc(CCC(=O)O)o2)cc1,158 to 160 °C
6,Fc1ccccc1Cc1nnc(S)o1,134 to 136 °C
7,COC(=O)c1sc2cccc(F)c2c1CBr,157 to 159 °C
8,Nc1ccc(C(=O)Nc2nccs2)cc1,256 to 258 °C
9,Cc1c(C)n(Cc2ccco2)c2ncnc(N)c12,180 to 182 °C
10,NC1CCN(c2ccc(Cl)cc2)C1=O (stereo not given),80 to 82 °C
11,CC(CS(=O)(=O)c1ccc(Br)cc1)C(=O)O (stereo not given),144 to 146 °C
12,COC(=O)c1sccc1S(N)(=O)=O,120 to 122 °C
13,O=C(O)CCC(=O)c1ccc(I)cc1,175 to 177 °C
14,Cn1cc(C(N)C(=O)O)cn1 (stereo not given),245 to 247 °C
15,CNC(=CC(=O)c1ccccc1C)NC,206 to 208 °C
16,Nc1ncc(-c2ccccc2)[nH]1,139 to 141 °C
17,O=C(O)c1cc(S(=O)(=O)NCc2ccco2)c(Cl)cc1Cl,149 to 151 °C
18,O=C(O)c1cnn(-c2cccc(C(F)(F)F)c2)c1C1CC1,172 to 174 °C
19,Cc1[nH]c(=O)c(C(=O)O)cc1-c1ccccc1,258 to 260 °C
20,Cc1cc(N)ccc1OCCN1CCCC1,112 to 114 °C
